Where two headings read alike, the source gives them in different places.
Tests used:
myelocytes of rats = assay: Formation of osteoclasts from rat myelocytes (RANKL + M-CSF, TRAP stain); format: cell-based, Wistar rats; conditions: Rattus norvegicus, Osteoclast, 216 h, 10 nM, 9 days
Experimental: Myelocytes were first prepared. Male Wistar rats with the body weight of 250 g to 300 g were used to prepare myelocytes. Under the condition of anaesthesia, the femurs of the rats were taken, and myelocytes were washed out with a phosphate buffer solution. […] After incubation for 9 days, monocytes in the marrow differentiated into osteoclasts. The osteoclasts were stained with a TRAP (tartrate-resistant acid phosphatase) stain reagent (Sigma, Louis, Mo., USA), and the number of the osteoclasts was calculated. Besides the same RANKL and M-CSF as the control group, various concentrations (0, 5, 25, 50, and 100 μM) of kinsenoside or 10 nM of estradiol (Wako, Japan) were added into culture plates, respectively. Then, rat myelocytes were incubated for 9 days, and the situation that the myelocytes differentiated into osteoclasts was observed. The percentage of the inhibition effect of kinsenoside and estradiol on the formation of osteoclasts was calculated with the following formula, and the result is shown in Table 9. Inhibition percentage (%)=(the number of osteoclasts of the control group−the number of osteoclasts of the experimental group)/the number of osteoclasts of the control group×100% In addition to the aforesaid RANKL, kinsenoside, and/or estradiol, the inhibitor of estradiol, Fulvestrant (Sigma, Louis, Mo., USA) (1 nM), was also added into culture plates. Then, rat myelocytes were incubated for 9 days, and the situation that the myelocytes differentiated into osteoclasts was observed. The percentage of the inhibition effect of kinsenoside on the formation of osteoclasts was calculated, and the result is shown in Table 9.

macrophages RAW 264.7 = assay: Formation of osteoclasts from macrophages RAW 264.7 (RANKL, TRAP stain); format: cell-based; conditions: Mus musculus, RAW264.7, 120 h; 10 nM, RANKL 50 ng/ml, 5 days; read-out: inhibition percentage
Experimental: If macrophages RAW 264.7 are incubated in culture plates containing 50 ng/ml of differentiation inducer, RANKL, they usually differentiate into osteoclasts after 5 days. In Experiment H, various concentrations (0, 10, and 50 μM) of kinsenoside or 10 nM of estradiol were added into culture plates containing macrophages RAW 264.7, respectively, and the macrophages RAW 264.7 were incubated for 5 days. […] The number of osteoclasts was counted, and the inhibition percentage of the formation of osteoclasts was calculated with the following formula, and the result is shown in Table 11. Inhibition percentage=(the number of osteoclasts in the control group−the number of osteoclasts in the experimental group)/the number of osteoclasts in the control group×100%

C[C@]12CC[C@@H]3c4ccc(O)cc4CC[C@H]3[C@@H]1CC[C@@H]2O [estradiol, reference compound]
inhibition at 0.01 µM (myelocytes of rats; with Fulvestrant 1 nM, read-out: inhibition percentage Experimental Group II): 24 ± 13.5% | inhibition at 0.01 µM (myelocytes of rats; without Fulvestrant, read-out: inhibition percentage Experimental Group I): 45.7 ± 10.5% | inhibition at 0.01 µM (macrophages RAW 264.7): 61 ± 16%

From patent US8084431B2, “Method for inhibiting activation of macrophages, inhibiting formation of osteoclasts, inhibiting function of osteoclasts, and/or activating osteoblasts” (China Medical University, priority 2008, dated 2011)
